Test results as given in PMC4783179 (The Journal of comparative neurology, 2015).
Values joined by “and” are separate entries in the source; they are usually repeats but may differ in a detail not shown here. Equal values may be shown once. Read-outs that look alike come from different tables or passages of the source.

What was measured:
5-HT1A receptors = conditions: ref Wooten et al., cited from earlier work
rabbits [1] = experiment: 14-Day Toxicity Study of FCWAY, intravenous; type: in vivo; conditions: from rabbit 0.3 mg/kg/day
rabbits [2] = conditions: intravenous, 14 consecutive days, ref PDSP data base; cited from earlier work
[3] = system: hippocampal extracellular serotonin levels; conditions: mice; ref Whittington and Virag, 2006; cited from earlier work
[4] = system: serotonin release in the rat frontal cortex; conditions: ref Mukaida et al., 2007; cited from earlier work
human P-glycoprotein = conditions: cited from earlier work
human = conditions: ref PDSP data base; cited from earlier work
[5] = humans, baseline and with disulfiram; ref Ryu et al., 2007; cited from earlier work
[6] = humans, with disulfiram; ref Ryu et al., 2007; cited from earlier work
[7] = rat, in vivo; cited from earlier work

For `COc1ccccc1N1CCN(CCN(C(=O)C2CCC(CF)CC2)c2ccccn2)CC1` (single isomer, unassigned) [cis-isomer of Mefway], the “Binding compared to trans-isomer” value (5-HT1A receptors; 2011a) is given as “lower binding”.
In the case of `COc1ccccc1N1CCN(CCN(C(=O)C2CCCC(CF)C2)c2ccccn2)CC1` (stereo not drawn) [3-Mefway analog], the “In vivo binding properties compared to 4-Mefway” value (5-HT1A receptors; 2014) is listed as “lower in vivo binding properties”.
For `COc1ccccc1N1CCN(CCN(C(=O)C2CCC(F)CC2)c2ccccn2)CC1` (stereo not drawn) [FCWAY], the “Human equivalent dose (HED) of the no-effect level” value (rabbits [1]) is given as 0.097 mg/kg and the No-effect level (rabbits [2]) is given as 0.3 mg/kg body weight/day.
For `FC(F)OC(Cl)C(F)(F)F` (stereo not drawn) [Isoflurane], the “Hippocampal extracellular serotonin levels” value [3] is listed as < 40 % of baseline and the “Serotonin release, frontal cortex” value [4] is listed as < 40 % of awake state.
In the case of `COc1ccccc1N1CCN(CCN(C(=O)c2ccc(F)cc2)c2ccccn2)CC1` [MPPF], the “Substrate of human P-glycoprotein” value (human P-glycoprotein) is listed as “not being suitable substrates”.
For `COc1ccccc1N1CCN(CCN(C(=O)C2CCCCC2)c2ccccn2)CC1` [WAY-100635, N-{2-[4-(2-methoxyphenyl)piperazin-1-yl]ethyl}-N-(pyridine-2-yl)cyclohexanecarboxamide], the “Substrate of human P-glycoprotein” value (human P-glycoprotein; ref Tournier et al., 2011) is given as “not being suitable substrates” and the “Daily dose safely used in human” value (human) is given as “up to 700 μg/kg”.
For `COc1ccccc1N1CCN(CCN(C(=O)C2CCC([18F])CC2)c2ccccn2)CC1` (stereo not drawn) [^18F-FCWAY], the Plasma free fraction [5] is listed as 13% and ~ 13% and the “Decrease of plasma clearance compared to baseline” value [6] is listed as 47%.
For `O=C(O)[C@H]1CC[C@H](C[18F])CC1` [^18F-FMCHA], the “Brain penetration and retention” value [7] is listed as “poor penetration and retention”.
